This is an account of results in US7423015B1, “Antihelminthic drugs as a treatment for hyperproliferative diseases” (Board of Regents, The University of Texas System, priority 2001, dated 2008).

The test relates to Ad-luciferase transgene expression. Put plainly: Ad-luciferase transgene expression with or without MZ. The format is cell-based. The note with it: six cell lines, MZ at 50 ng/ml, 48 hours. Here is the method: FIG. 8. Expression of Ad-luciferase in H1299 cells with and without MZ. H1299 cells were treated with media (UT) or Ad-luciferase at increasing multiplicities of infection, with or without MZ at 50 ng/ml. Forty-eight hours later, cells were harvested and luciferase activity assayed.
FIG. 9. Expression of Ad-luciferase in A549 cells with and without MZ. A549 cells were plated in 6-well dishes and either treated with media (UT) or Ad-luciferase at increasing multiplicities of infection, with or without MZ at 50 ng/ml. Forty-eight hours later, cells were harvested and luciferase activity assayed.
Next, a series of six cell lines were transfected with Ad-luciferase at increasing multiplicities of infection, with or without MZ at 50 ng/ml.

Molecules are shown by their SMILES.

With `COC(=O)Nc1nc2ccc(C(=O)c3ccccc3)cc2[nH]1` [Mebendazole, Methyl 5-benzoylbenzimidazole-2-carbamate], the transgene expression result is given as “significant increases”.
